Here are results for five compounds from ChEMBL document CHEMBL4834457, “Discovery and optimization of selective RET inhibitors via scaffold hopping” (Bioorg Med Chem Lett, 2021).

The source made the active and inactive calls. No cut-off for these calls is given here.

Usually AUC stands for the area under the concentration-time curve, a measure of exposure. By IC50 is commonly meant the concentration that inhibits the measured activity by half. A low value points to greater potency. For orientation: bioavailability means dose-corrected exposure relative to a reference, in per cent. A word on the clearance: it is a measure of how efficiently the substance is removed, as volume per time. The Vd is the apparent volume that relates the amount in the body to the concentration in plasma or blood. Low readings indicate confinement near the circulation, high ones extensive tissue distribution.

The test system of data set [1] is BaF3. Kind of data set: Antitumor activity against mouse KIF5B-RET BaF3 cells xenografted in nu/nu mouse assessed as tumour growth inhibition at 20 mg/kg, po qd for 10 days. It is filed as functional, organism-based. The settings on record: time 10.0 day.
Data set [2] in a line: Toxicity in mouse transplanted with mouse KIF5B-RET Ba/F3 cells assessed as change in body weight at 20 mg/kg, po […] for 10 days relative to control. Type of data set: organism-based, BaF3. To be noted: in vivo, 240 h, time 10 day.
A short description of data set [3]: Intrinsic clearance in mouse liver microsomes. Type of data set: ADME, Microsome. To be noted: read-out: CLH.
Data set [4] is described as follows: Toxicity in mouse transplanted with mouse KIF5B-RET Ba/F3 cells assessed as change in body weight at 10 mg/kg, po […] for 10 days relative to control. It is filed as organism-based, BaF3. To be noted: in vivo, 240 h, time 10 day.
Data set [5] in a line: AUC in mouse plasma at 10 mg/kg, po. Details: dose 10 mg/kg. Type of data set: ADME, organism-based.
Data set [6] has as its target Proto-oncogene tyrosine-protein kinase receptor Ret (Homo sapiens, UniProt P07949, V804M). Kind of data set: Inhibition of RET V804M mutant (unknown origin).
Data set [7] addresses Tyrosine-protein kinase JAK2 (Homo sapiens, UniProt O60674). Kind of data set: Inhibition of JAK2 (unknown origin).
The nature of data set [8]: Intrinsic clearance in human liver microsomes. It is filed as ADME, Microsome. To be noted: read-out: CLH. On the technique in general: Liver microsomes are a subcellular fraction often used to study metabolism.
The target of data set [9] is T1, Receptor-type tyrosine-protein kinase FLT3 (Homo sapiens, UniProt P36888).
T1 sequence (P36888 whole entry): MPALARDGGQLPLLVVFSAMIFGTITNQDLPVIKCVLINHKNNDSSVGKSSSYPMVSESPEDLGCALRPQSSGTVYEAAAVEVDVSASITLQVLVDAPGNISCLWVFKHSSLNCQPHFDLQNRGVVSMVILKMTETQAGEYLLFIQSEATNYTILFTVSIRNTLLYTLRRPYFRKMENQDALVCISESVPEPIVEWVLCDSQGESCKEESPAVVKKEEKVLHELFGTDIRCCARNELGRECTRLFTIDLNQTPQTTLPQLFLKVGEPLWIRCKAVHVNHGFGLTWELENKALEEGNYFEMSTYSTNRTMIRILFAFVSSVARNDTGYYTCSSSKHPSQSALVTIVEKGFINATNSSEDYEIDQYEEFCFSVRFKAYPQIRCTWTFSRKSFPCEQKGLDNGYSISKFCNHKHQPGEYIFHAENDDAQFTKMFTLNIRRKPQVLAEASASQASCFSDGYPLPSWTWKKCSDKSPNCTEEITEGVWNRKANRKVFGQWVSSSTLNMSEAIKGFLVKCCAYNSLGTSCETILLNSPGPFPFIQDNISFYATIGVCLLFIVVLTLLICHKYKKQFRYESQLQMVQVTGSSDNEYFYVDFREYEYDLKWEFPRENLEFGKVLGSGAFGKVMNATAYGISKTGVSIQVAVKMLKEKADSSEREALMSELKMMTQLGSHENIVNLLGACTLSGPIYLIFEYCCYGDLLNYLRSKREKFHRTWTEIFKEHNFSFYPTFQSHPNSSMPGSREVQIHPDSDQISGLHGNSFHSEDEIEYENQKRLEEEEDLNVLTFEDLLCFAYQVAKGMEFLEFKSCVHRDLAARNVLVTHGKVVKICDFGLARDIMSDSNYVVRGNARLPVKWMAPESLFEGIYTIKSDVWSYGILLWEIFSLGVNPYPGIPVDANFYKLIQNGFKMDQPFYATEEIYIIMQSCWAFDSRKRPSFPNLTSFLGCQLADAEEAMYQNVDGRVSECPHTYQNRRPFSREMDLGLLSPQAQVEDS
Kind of data set: Inhibition of FLT3 (unknown origin).

Data set [10] in a line: Drug level in plasma of mouse transplanted with mouse KIF5B-RET Ba/F3 cells at 10 mg/kg, po qd for 10 days measured after 8.5 hrs. It is filed as ADME, organism-based, BaF3. The settings on record: time 10 day.
Data set [11] relates to BaF3. Kind of data set: Antitumor activity against mouse KIF5B-RET BaF3 cells xenografted in nu/nu mouse assessed as tumour growth inhibition at 10 mg/kg, po qd for 10 days. It is filed as functional, organism-based. To be noted: time 10.0 day.
In data set [12] the target is Proto-oncogene tyrosine-protein kinase receptor Ret (Homo sapiens, UniProt P07949, M918T). Kind of data set: Inhibition of RET M918T mutant (unknown origin).
Sequence of Proto-oncogene tyrosine-protein kinase receptor Ret (Homo sapiens, UniProt P07949, M918T) (P07949 29-1114 M918T limits assumed): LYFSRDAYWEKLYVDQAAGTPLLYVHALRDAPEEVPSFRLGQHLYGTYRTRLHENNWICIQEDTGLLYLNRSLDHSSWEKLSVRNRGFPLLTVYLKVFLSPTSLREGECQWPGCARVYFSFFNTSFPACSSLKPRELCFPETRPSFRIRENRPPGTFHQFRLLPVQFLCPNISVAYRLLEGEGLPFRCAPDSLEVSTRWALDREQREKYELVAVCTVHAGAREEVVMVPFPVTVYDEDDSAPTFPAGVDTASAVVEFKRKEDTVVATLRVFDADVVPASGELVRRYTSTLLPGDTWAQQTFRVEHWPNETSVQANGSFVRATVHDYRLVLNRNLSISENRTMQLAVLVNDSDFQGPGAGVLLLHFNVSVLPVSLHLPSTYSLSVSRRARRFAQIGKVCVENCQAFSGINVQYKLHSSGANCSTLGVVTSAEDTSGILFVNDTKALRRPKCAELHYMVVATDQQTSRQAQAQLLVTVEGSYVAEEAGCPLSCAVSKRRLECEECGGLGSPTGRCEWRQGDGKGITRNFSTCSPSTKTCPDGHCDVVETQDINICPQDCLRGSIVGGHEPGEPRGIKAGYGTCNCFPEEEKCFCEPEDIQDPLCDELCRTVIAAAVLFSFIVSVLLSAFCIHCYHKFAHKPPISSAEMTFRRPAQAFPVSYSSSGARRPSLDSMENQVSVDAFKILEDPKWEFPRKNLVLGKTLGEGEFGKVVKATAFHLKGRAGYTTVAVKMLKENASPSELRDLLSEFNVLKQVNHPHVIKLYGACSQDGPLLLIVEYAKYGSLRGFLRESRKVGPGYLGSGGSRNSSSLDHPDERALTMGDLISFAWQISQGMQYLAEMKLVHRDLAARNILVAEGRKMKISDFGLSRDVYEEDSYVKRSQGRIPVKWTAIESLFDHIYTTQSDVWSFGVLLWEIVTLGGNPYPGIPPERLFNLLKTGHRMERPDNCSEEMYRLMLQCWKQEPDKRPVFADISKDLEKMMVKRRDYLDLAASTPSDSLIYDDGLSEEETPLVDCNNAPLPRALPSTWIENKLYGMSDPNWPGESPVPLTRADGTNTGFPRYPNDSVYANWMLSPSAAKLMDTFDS
The subject of data set [13] is BaF3. Kind of data set: Antiproliferative activity against mouse KIF5B-RET BaF3 cells by cell based assay. It is filed as functional.
The nature of data set [14]: Oral bioavailability in mouse. Type of data set: ADME, organism-based. To be noted: in vivo.
A short description of data set [15]: Clearance in mouse. It is filed as ADME, organism-based. The settings on record: in vivo.
The nature of data set [16]: Volume of distribution in mouse. It is filed as ADME, organism-based. To be noted: in vivo.
Data set [17] in a line: Drug level in tumor of mouse transplanted with mouse KIF5B-RET Ba/F3 cells at 10 mg/kg, po qd for 10 days measured after 8.5 hrs. The settings on record: in vivo, 240 h, time 10 day. Type of data set: ADME, organism-based, Neoplasm, BaF3.
The target in data set [18] is Proto-oncogene tyrosine-protein kinase receptor Ret (Homo sapiens, UniProt P07949). Kind of data set: Inhibition of RET wild type (unknown origin).
Sequence of Proto-oncogene tyrosine-protein kinase receptor Ret (Homo sapiens, UniProt P07949) (P07949 whole entry): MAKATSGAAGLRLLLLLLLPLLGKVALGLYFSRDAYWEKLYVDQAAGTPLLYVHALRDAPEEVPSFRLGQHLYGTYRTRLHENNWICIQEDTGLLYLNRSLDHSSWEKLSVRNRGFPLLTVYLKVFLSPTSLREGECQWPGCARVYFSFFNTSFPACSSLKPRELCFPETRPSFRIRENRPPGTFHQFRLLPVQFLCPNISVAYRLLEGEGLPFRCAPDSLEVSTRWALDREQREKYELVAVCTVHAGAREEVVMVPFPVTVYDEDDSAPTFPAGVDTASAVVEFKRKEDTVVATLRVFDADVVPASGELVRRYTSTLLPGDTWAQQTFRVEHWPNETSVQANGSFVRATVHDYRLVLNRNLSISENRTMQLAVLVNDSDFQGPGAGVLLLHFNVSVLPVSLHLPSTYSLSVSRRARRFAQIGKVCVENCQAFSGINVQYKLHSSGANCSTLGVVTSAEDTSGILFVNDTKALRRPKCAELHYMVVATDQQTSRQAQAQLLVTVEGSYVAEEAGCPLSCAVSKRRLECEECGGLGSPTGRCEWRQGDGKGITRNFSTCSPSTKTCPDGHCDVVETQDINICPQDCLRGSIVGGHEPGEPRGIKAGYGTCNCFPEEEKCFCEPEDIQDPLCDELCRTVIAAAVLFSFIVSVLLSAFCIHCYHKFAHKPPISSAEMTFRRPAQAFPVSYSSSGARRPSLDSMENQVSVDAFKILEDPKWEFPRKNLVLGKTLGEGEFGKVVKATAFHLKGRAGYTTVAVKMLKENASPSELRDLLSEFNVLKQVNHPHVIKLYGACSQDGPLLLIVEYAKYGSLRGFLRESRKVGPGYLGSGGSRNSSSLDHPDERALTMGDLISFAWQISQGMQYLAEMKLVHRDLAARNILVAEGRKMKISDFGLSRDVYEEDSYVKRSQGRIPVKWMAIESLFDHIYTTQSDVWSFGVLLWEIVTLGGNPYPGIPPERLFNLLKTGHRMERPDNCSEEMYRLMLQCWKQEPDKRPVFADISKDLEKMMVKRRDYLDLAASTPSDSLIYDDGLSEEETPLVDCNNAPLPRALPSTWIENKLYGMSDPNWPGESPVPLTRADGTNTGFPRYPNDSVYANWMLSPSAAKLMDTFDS

Sequence of Tyrosine-protein kinase JAK2 (O60674 whole entry): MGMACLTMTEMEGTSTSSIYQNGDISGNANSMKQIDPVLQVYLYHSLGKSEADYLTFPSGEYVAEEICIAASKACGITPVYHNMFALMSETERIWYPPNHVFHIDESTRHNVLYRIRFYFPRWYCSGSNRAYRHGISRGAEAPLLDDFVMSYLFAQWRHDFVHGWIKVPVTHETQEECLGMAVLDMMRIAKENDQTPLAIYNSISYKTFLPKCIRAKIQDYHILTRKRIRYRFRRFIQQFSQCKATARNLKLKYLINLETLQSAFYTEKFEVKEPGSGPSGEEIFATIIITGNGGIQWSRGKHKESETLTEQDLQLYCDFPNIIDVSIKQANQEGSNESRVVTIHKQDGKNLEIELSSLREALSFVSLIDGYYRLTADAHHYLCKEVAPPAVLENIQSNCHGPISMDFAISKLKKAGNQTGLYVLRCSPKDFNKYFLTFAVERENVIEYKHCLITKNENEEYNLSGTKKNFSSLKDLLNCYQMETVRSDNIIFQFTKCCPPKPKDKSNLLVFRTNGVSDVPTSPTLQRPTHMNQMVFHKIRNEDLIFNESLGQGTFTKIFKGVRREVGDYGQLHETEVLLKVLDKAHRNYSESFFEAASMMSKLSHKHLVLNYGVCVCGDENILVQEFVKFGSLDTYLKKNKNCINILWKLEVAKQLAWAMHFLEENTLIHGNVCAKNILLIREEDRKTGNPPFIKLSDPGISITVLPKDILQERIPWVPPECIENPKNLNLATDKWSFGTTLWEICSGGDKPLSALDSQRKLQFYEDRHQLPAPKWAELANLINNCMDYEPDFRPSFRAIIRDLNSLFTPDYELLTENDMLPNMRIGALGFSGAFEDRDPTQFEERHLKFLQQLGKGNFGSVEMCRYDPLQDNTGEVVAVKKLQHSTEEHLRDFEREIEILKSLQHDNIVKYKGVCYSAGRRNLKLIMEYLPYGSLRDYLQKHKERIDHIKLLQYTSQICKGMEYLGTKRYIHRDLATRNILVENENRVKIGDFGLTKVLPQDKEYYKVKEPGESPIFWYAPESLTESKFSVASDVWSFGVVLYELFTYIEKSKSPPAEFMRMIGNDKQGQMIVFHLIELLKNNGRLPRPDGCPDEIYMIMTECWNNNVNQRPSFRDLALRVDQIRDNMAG
Sequence of Proto-oncogene tyrosine-protein kinase receptor Ret (Homo sapiens, UniProt P07949, V804M) (P07949 29-1114 V804M limits assumed): as the sequence (P07949 29-1114 M918T limits assumed) above, with V776M, T890M counted along it

For the compound `Cc1cc(Nc2cc(C)[nH]n2)nc(N2CCC3(CC2)OCCN([C@@H](C)c2ccc(-n4cc(F)cn4)nc2)C3=O)n1`, the result in the data set with BaF3 [1] and in the data set with BaF3 [11] was Active. For the same compound, the Activity entry in data set [2] and in data set [4] was “Non-Toxic” in each case. For the same compound, the CLint scaled in [3] was 79 mL/min/kg; in data set [8] it was 24.1 mL/min/kg. In data set [5], this compound had an AUC of 27.7 µM·h. Also, the IC50 amounted to 1.97 nM in data set [6]; 4.4 nM in [7]; 30.8 nM in data set [9]; 0.9 nM in data set [12]; 19 nM with BaF3 [13]; 1.29 nM in data set [18]. This compound showed a concentration at 240 h in [10] of 3.94 µM. The bioavailability in data set [14] is 59.7%. The clearance in data set [15] was 6.6 mL/min/kg. In data set [16], this compound came in with a volume of distribution (Vd) of 1.5 L/kg. The compound further came in with a Drug uptake in data set [17] of 8100 nmol/kg.
As to `CO[C@]1(C(=O)N[C@@H](C)c2ccc(-n3cc(F)cn3)nc2)CC[C@H](c2nc(C)cc(Nc3cc(C)[nH]n3)n2)CC1` [PRALSETINIB], the CLint scaled is less than 38 mL/min/kg in [3] and less than 8.6 mL/min/kg in data set [8]. Besides, the Activity result in data set [4] is given as “Non-Toxic”. Also, in [5], the AUC stood at 46.1 µM·h. Besides, the figures for the IC50 (in [7]; in [9]; in the data set on BaF3 [13]) were 2 nM, 6.5 nM and 17 nM, respectively. This compound also returned a concentration at 240 h in data set [10] of 6.32 µM. Further, the outcome in the data set on BaF3 [11] was Active. Moreover, the bioavailability in data set [14] is 77.2%. Further, the clearance in data set [15] was 5 mL/min/kg. The Vd in data set [16] was determined as 0.7 L/kg. Further, the Drug uptake in data set [17] turned out to be 2522 nmol/kg.
Turning to `Cc1cc(Nc2cc(C)[nH]n2)nc(N2CCC3(CCCN([C@@H](C)c4cnc(-n5cc(F)cn5)cn4)C3=O)CC2)n1`, the CLint scaled in data set [3] amounted to 136 mL/min/kg; in data set [8] it was 31.3 mL/min/kg. In the data set on BaF3 [13], the IC50 was found to be 19 nM.
For `Cc1cc(Nc2cc(C)[nH]n2)nc(N2CCC3(CCCN([C@@H](C)c4ccc(-n5cc(F)cn5)nc4)C3=O)CC2)n1`, the CLint scaled in data set [3] stood at 155 mL/min/kg; in [8], 36.4 mL/min/kg. In the data set with BaF3 [13], this compound came in with an IC50 of 14 nM.
`Cc1cc(Nc2cc(C)[nH]n2)nc(C2CCC3(CCCN([C@@H](C)c4ccc(-n5cc(F)cn5)nc4)C3=O)CC2)n1` (some centres undefined): the CLint scaled in data set [3] is less than 38 mL/min/kg; in [8], less than 8.6 mL/min/kg.
